From patent US20050036994A1, “Compounds and methods for downregulating the effects of TGF-beta” (priority 2003, published 2005)

Experiments:
pericellular cathepsin B [1] = target: T1, pericellular cathepsin B (Mus musculus, UniProt P10605); test: Pericellular cathepsin B assay (z-Arg-Arg-AMC) on transfected LLC cells; format: biochemical; settings: 25 nM inhibitor added to the assay
T1 construct: These cells normally express cathepsin B; endogenous in cells; host or cells: Lewis lung carcinoma (LLC) cells, intact cell suspension, transfected with AHSG or empty vectors (not with cathepsin B)
Source text: In this example we used the fluorogenic substrate called z-Arg-Arg-AMC. […] The ability of this substrate to stay outside the cell allowed us to measure the enzymatic activity of pericellular cathepsin B (Hulkower, K. I. et al Eur J Biochem 267:4165 (2000). Many human and mouse cancer cell lines have cathepsin B activity on the cell surface.
To measure the effect of AHSG on the activity of cathepsin B, we expressed AHSG using expression vectors, pAAV-AHSG or pCDNA-AHSG that were used to transfect Lewis lung carcinoma (LLC) cells. These cells normally express cathepsin B (Hulkower, K. I. et al Eur J Biochem 267:4165 (2000)). Thus the addition of the substrate to the cells transfected with a non-specific vector lead to lysis of the peptide and the resulting level of cathepsin B activity was arbitrarily set at 100 (FIG. 7, left column). Cathepsin B activity following transfection with pAAV-AHSG was roughly 25% lower than that in control cells (FIG. 7, second column). Next 25 nM of a known inhibitor of cathepsin B, CA 074 was added to the assay. […] Despite the low transfection efficiency of LLC cells that ranged from 10 to 20% as measured using in situ staining of β-galactosidase activity, the observed reduction of the cathepsin B in the presence of AHSG supports the present invention that expression of AHSG suppresses cathepsin B activity on the cell surface. […]

pericellular cathepsin B [2] = test: Pericellular cathepsin B assay with partially purified AHSG or concentrated spent media of infected HEK293 cells (FIG. 8); format: biochemical; settings: for inhibition of pericellular cathepsin B activity: FIG. 8
Experimental: 50 μl of the cell suspension was added to a black walled 96 well plate (ThermoLabsystems, Part No. 8220, Vantaa, Finland). The appropriate concentration of inhibitors of cathepsin B, purified AHSG or concentrated media were diluted in 5 μl of PAB and the added to the cell suspension in each of the 96 wells. The plate was pre-incubated at 40° C. for 30 min. The reaction was started by adding 50 μl of a 200 μM solution of z-Arg-Arg-AMC (EMD Biosciences Inc, Darmstadt, Germany), a fluorogenic peptide that is lysed by cathhepsin B. This substrate was dissolved in PAB and pre-incubated at 40° C. prior to use. Hydrolytic activity of cathepsin B produces free AMC from the substrate peptide resulting in increased fluorescence. The intensity of fluorescence was measured using ThermoLabsystems Fluoroskan microplate reader with a 355 nm excitation filter and a 420 nm emission filter. The stock solution of z-Arg-Arg-AMC was dissolved in DMSO at the concentration of 10 mM and stored in −80° C. The Cathepsin B specific inhibitors CA-074 and Ac-LVK-CHO (EMD Biosciences Inc., Darmstadt, Germany) were dissolved in H2O at the concentration of 10 mM, aliquoted and stored in −80° C.
HEK 293 cells were subcultured at the cell density of 40% confluence in the morning of the study. […] The next day culture medium was replaced with fresh D-MEM supplemented with 5% FCS and culture for 2 additional days. The culture medium was passed through a filter with the pore size of 0.22 micron and then stored at −80° C. […] A centrifugal filtration unit, NanoSep 100 (Pall Corporation, Ann Arbor, Mich.) were applied to collect the molecular weights lower than 100 kD. The 0.4 ml of the flow through fraction from NanoSep 100 was applied to Nanosep30 and the remaining protein on the filter membrane was re-suspended in 40 μl of PAB (Hank's balanced salt solution without sodium bicarbonate, 0.6 mM MgCl2, 0.6 mM CaCl2, 2 mM 1-cystein and 25 mM PIPES adjusted pH to 7.0) The protein concentration was determined using Bradford reagent (Bio-Rad, Hercules, Calif.). The aliqouts of protein solution was flash frozen by liquid nitrogen and stored in −80° C. prior to use.

T1 sequence (P10605 80-333): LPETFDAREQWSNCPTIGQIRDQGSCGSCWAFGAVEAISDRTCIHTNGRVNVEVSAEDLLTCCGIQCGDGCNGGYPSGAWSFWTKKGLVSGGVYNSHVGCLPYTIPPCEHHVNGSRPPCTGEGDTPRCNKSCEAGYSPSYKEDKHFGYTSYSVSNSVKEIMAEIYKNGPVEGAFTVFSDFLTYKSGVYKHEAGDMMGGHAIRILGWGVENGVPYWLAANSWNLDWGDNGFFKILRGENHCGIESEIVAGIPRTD

Row | Molecule | inhibition of cathepsin B activity (words) (pericellular cathepsin B [1]) | inhibition of cathepsin B activity (words) (pericellular cathepsin B [1]; listed as CA 074) | inhibition of pericellular cathepsin B activity (pericellular cathepsin B [2]) | inhibition of pericellular cathepsin B activity (pericellular cathepsin B [2]; listed as AHSG purchased from Sigma) | amount of protein required for complete inhibition, relative to the concentration of AHSG in the blood of adults (0.3 to 0.6 mg/ml) (pericellular cathepsin B [2]; one of the lots)
1 | CCCNC(=O)[C@H]1O[C@@H]1C(=O)N[C@H](C(=O)N1CCC[C@H]1C(=O)O)[C@@H](C)CC [CA-074] | inhibited cathepsin B activity | expected inhibition of cathepsin B activity | inhibited activity of cathepsin B |  | 
2 | purchased AHSG: purchased AHSG (Sigma) partially purified from human plasma (protein, UniProt P02765 19-300; P02765 341-367, looked up) Alpha-2-HS-glycoprotein chain … 1: APHGPGLIYRQPNCDDPETEEAALVAIDYINQNLPWGYKHTLNQIDEVKVWPQQPSGELFEIEIDTLETTCHVLDPTPVARCSVRQLKEHAVEGDCDFQLLKLDGKFSVVYAKCDSSPDSAEDVRKVCQDCPLLAPLNDTRVVHAAKAALAAFNAQNNGSNFQLEEISRAQLVPLPPSTYVEFTVSGTDCVAKEATEAAKCNLLAEKQYGFCKATLSEKLGGAEVAVTCMVFQTQPVSSQPQPEGANEAVPTPVVDPDAPPSPPLGAPGLPPAGSPPDSHVL Alpha-2-HS-glycoprotein chain … 2: TVVQPSVGAAAGPVVPPCPGRIRHFKV |  |  | inhibited completely the activity of cathepsin B | significant inhibition of pericellular cathepsin B activity | less than 10%
